Experimental data reported in patent US20130190251A1, “METHOD FOR PREDICTING THE RESPONSIVENESS TO CHEMOTHERAPY” (priority 2010, published 2013).
“Also recorded” adds a separate entry of the source.

Tests used:
Assay type in all cases: cell-based
[1] = tested on: HL-60 cells sensitive to daunorubicin (HL60S); experiment: Apoptosis by mitochondrial depolarization after DiOC6 labeling, HL60S; settings: 15-hour incubation, gliotoxin 1 mg/ml or p21 peptide 50 mM
Description: (§1) FIG. 7. The p21 peptide restores apoptosis in daunorubicin-resistant HL60 cells. HL60S and HL60R were incubated overnight with the p21 peptide (50 mM) or with gliotoxin (1 mg/ml). After a 15-hour incubation, the effect of the p21 peptide on the percentage of apoptotic HL60 cells was measured by mitochondrial depolarization after DiOC6 labeling and by DNA fragmentation after propidium iodide labeling. Data are means±SEM of 5 independent experiments.
(§2) Apoptosis in HL-60 cells sensitive to daunorubicin (HL60S) was compared to apoptosis in HL-60 cells resistant to daunorubicin (HL60R). Apoptosis was induced either by gliotoxin that triggers apoptosis by targeting the mitochondria or the p21 peptide. The p21 peptide corresponds to residues 141 to 160 of p21 fused to the cell penetrating peptide RYIRS. HL60S and HL60R were incubated overnight with the p21 peptide (50 mM) or with gliotoxin (1 mg/ml). After a 15-hour incubation, the effect of the p21 peptide on the percentage of apoptotic HL60 cells was measured by mitochondrial depolarization after DiOC6 labeling and by DNA fragmentation after propidium iodide labeling (FIG. 7).

[2] = tested on: HL-60 cells resistant to daunorubicin (HL60R); experiment: Apoptosis by mitochondrial depolarization after DiOC6 labeling, HL60R; settings: 15-hour incubation, gliotoxin 1 mg/ml or p21 peptide 50 mM
Description: as §1, §2

[3] = tested on: HL-60 cells resistant to daunorubicin (HL60R); experiment: Apoptosis by DNA fragmentation after propidium iodide labeling, HL60R; settings: 15-hour incubation, gliotoxin 1 mg/ml or p21 peptide 50 mM
Description: as §1, §2

[4] = tested on: HL-60 cells sensitive to daunorubicin (HL60S); experiment: Apoptosis by DNA fragmentation after propidium iodide labeling, HL60S; settings: 15-hour incubation, gliotoxin 1 mg/ml or p21 peptide 50 mM
Description: as §1, §2

[5] = tested on: K562-doxorubicin sensitive cells; experiment: Analysis of drug resistance by DIOC2 efflux, K562 sensitive; settings: cisplatin 2.5 μg/ml, DIOC2 50 ng/ml, 30 min at 37° C., FACS
Description: (§3) FIG. 6. Acquisition of drug resistance of myelocytic leukemia cell line K562 by doxorubicin. Analysis of inhibition by cisplatin of DIOC2 incorporation in myelocytic leukemia K562 cell line. Drug resistance is mediated by ABC transporters such as P-glycoprotein (P-gp) K562 cells were incubated with DIOC2 with or without cisplatin, and the fluorescence of DIOC2 incorporated in cells was assessed by FACS. In K562-doxorubicin sensitive cells, high fluorescence of DIOC2 is observed because of the lack of efflux. No effect of cisplatin is observed consistent with an absence of ABC transporter-mediated drug resistance.
(§4) The assay is based on the efflux of fluorescent P-gp substrate DiOC2 (3-ethyl-2-[3-(3-ethyl-2(3H)-benzoxazolylidene)-1-propenyl]benzoxazolium iodide) in doxorubicin-resistant cells, which can be inhibited by cisplatin. This efflux is absent in doxorubicin-sensitive cells resulting in an accumulation of DIOC2. DIOC2 fluorescence is measured by flow cytometry. Briefly, K562 at 1×10^6 cellules/ml were treated by cisplatin (2.5 μg/ml) in the presence of DIOC2 (50 ng/ml) for 30 min at 37° C. The cells are analyzed by flow cytometry.

[6] = tested on: K562-doxorubicin resistant cells; experiment: Analysis of drug resistance by DIOC2 efflux, K562 resistant; settings: cisplatin 2.5 μg/ml, DIOC2 50 ng/ml, 30 min at 37° C., FACS
Description: as §3, §4

Compound	mitochondria depolarization in HL60S (percentage of apoptotic HL60 cells) [1]	mitochondria depolarization in HL60R (percentage of apoptotic HL60 cells) [2]	DNA fragmentation in HL60R (percentage of apoptotic HL60 cells) [3]	DNA fragmentation in HL60S (percentage of apoptotic HL60 cells) [4]	DNA fragmentation in HL60S (percentage of apoptotic HL60 cells) ([4]; listed as gliotoxin)	effect on fluorescence of DIOC2 incorporated in cells [5]	effect on DIOC2 efflux (fluorescence of DIOC2 incorporated in cells) [6]
p21 peptide: residues 141 to 160 of p21 fused to the cell penetrating peptide RYIRS (KRRQTSMTDFYHSKRRLIFSRYIRS; Synthetic peptide based on residues 141 to 160 of p21 fused to the RYIRS tag)	more modest effect	low but significant mitochondria depolarization	induces DNA fragmentation in HL60R more potently than in HL60S; also recorded: inducing DNA fragmentation in HL60R more potently than in HL60S	–	–	–	–
CN1C(=O)[C@]23CC4=CC=C[C@H](O)[C@H]4N2C(=O)[C@@]1(CO)SS3 [Gliotoxin, gliotoxin]	–	no effect on HL60R	no effect on HL60R	triggers mitochondria depolarization and DNA fragmentation in HL60S	induces apoptosis in HL60S	–	–
N.N.[Cl][Pt][Cl] [cisplatin]	–	–	–	–	–	No effect	efflux which was reversed
